Key:
Assay in all cases: microbe, parasite or virus in culture
Format in all cases: cell-based
[1] = system: influenza A virus minigenome (PB2, PB1, PA, NP; luciferase reporter) in 293T cells, RNP_CAL; details: HEK-293T, 48 h, read-out: RNP_CAL_EC50
[2] = system: influenza A virus minigenome (PB2, PB1, PA, NP; luciferase reporter) in 293T cells, RNP_Hubei; details: HEK-293T, 48 h
[3] = system: influenza A virus minigenome (PB2, PB1, PA, NP; luciferase reporter) in 293T cells, RNP_Alaska; details: HEK-293T, 48 h

SMILES	EC50 [1] [nM]	EC50 [2] [nM]	EC50 [3] [nM]
COc1ccccc1[C@H](c1ccc(F)cc1)[C@H]1[C@H]2CCCN2C(=O)c2c(O)c(=O)cnn21 [Example 6, (9aR,10S)-10-((S)-(4-fluorophenyl)(2-methoxyphenyl)methyl)-4-hydroxy-8,9,9a,10-tetrahydro-7H-pyrrolo[1′,2′:4,5]pyrazino[1,2-b]pyridazine-3,5-dione]	100 to 1000	100 to 1000	100 to 1000
COc1ccc([C@H](c2ccc(F)cc2)[C@H]2[C@H]3CCCN3C(=O)c3c(O)c(=O)cnn32)cc1 [Example 7, (9aR,10S)-10-((R)-(4-fluorophenyl)(4-methoxyphenyl)methyl)-4-hydroxy-8,9,9a,10-tetrahydro-7H-pyrrolo[1′,2′:4,5]pyrazino[1,2-b]pyridazine-3,5-dione]	100 to 1000	100 to 1000	100 to 1000
O=C1c2c(O)c(=O)cnn2[C@@H]([C@H](c2ccccc2F)c2cccc(F)c2F)[C@H]2CCCN12 [Example 8, (9aR,10S)-10-((R)-(2,3-difluorophenyl)(2-fluorophenyl)methyl)-4-hydroxy-8,9,9a,10-tetrahydro-7H-pyrrolo[1′,2′:4,5]pyrazino[1,2-b]pyridazine-3,5-dione]	< 100	< 100	< 100
COc1cccc([C@H](c2ccc(F)cc2)[C@H]2[C@H]3CCCN3C(=O)c3c(O)c(=O)cnn32)c1 [Example 9, (9aR,10S)-10-((S)-(4-fluorophenyl)(3-methoxyphenyl)methyl)-4-hydroxy-8,9,9a,10-tetrahydro-7H-pyrrolo[1′,2′:4,5]pyrazino[1,2-b]pyridazine-3,5-dione]	100 to 1000	< 100	100 to 1000
Cc1cccc([C@H](c2ccc(F)cc2)[C@H]2[C@H]3CCCN3C(=O)c3c(O)c(=O)cnn32)c1 [Example 10, (9aR,10S)-10-((S)-(4-fluorophenyl)(m-tolyl)methyl)-4-hydroxy-8,9,9a,10-tetrahydro-7H-pyrrolo[1′,2′:4,5]pyrazino[1,2-b]pyridazine-3,5-dione]	< 100	< 100	< 100
Cc1c([C@@H](c2cccc(F)c2)[C@H]2[C@H]3CCCN3C(=O)c3c(O)c(=O)cnn32)ccc(F)c1F [Example 11, (9aR,10S)-10-((R)-(3,4-difluoro-2-methylphenyl)(3-fluorophenyl)methyl)-4-hydroxy-8,9,9a,10-tetrahydro-7H-pyrrolo[1′,2′:4,5]pyrazino[1,2-b]pyridazine-3,5-dione]	< 100	< 100	< 100
Cc1cccc([C@@H](c2cccc(F)c2)[C@H]2[C@H]3CCCN3C(=O)c3c(O)c(=O)cnn32)c1F [Example 12, (9aR,10S)-10-((R)-(2-fluoro-3-methylphenyl)(3-fluorophenyl)methyl)-4-hydroxy-8,9,9a,10-tetrahydro-7H-pyrrolo[1′,2′:4,5]pyrazino[1,2-b]pyridazine-3,5-dione]	100 to 1000	100 to 1000	100 to 1000
O=C1c2c(O)c(=O)cnn2[C@@H](C(c2cccc(F)c2)c2cccc(F)c2)[C@H]2CC(F)(F)CN12 [Example 13, (9aR,10S)-10-(bis(3-fluorophenyl)methyl)-8,8-difluoro-4-hydroxy-8,9,9a,10-tetrahydro-7H-pyrrolo[1′,2′:4,5]pyrazino[1,2-b]pyridazine-3,5-dione]	≥ 1000	100 to 1000	≥ 1000
O=C1c2c(O)c(=O)cnn2[C@@H]([C@H](c2ccccc2)c2cccc(F)c2F)[C@@H]2COCCN12 [Example 14, (10aR,11S)-11-((R)-(2,3-difluorophenyl)(phenyl)methyl)-4-hydroxy-7,8,10a,11-tetrahydro-10H-pyridazino[1′,6′:4,5]pyrazino[2,1-c][1,4]oxazine-3,5-dione]	< 100	< 100	< 100
Cc1c(F)cccc1[C@@H](c1cccc(F)c1)[C@H]1[C@H]2CCCN2C(=O)c2c(O)c(=O)cnn21 [Example 15, (9aR,10S)-10-((R)-(3-fluoro-2-methylphenyl)(3-fluorophenyl)methyl)-4-hydroxy-8,9,9a,10-tetrahydro-7H-pyrrolo[1′,2′:4,5]pyrazino[1,2-b]pyridazine-3,5-dione]	< 100	< 100	< 100
O=C1c2c(O)c(=O)cnn2[C@@H]([C@H](c2ccccc2)c2c(F)ccc(F)c2F)[C@H]2CCCN12 [Example 16, (9aR,10S)-4-hydroxy-10-((R)-phenyl(2,3,6-trifluorophenyl)methyl)-8,9,9a,10-tetrahydro-7H-pyrrolo[1′,2′:4,5]pyrazino[1,2-b]pyridazine-3,5-dione]	< 100	< 100	< 100
Cc1ccccc1[C@H](c1cccc(C)c1F)[C@H]1[C@H]2CCCN2C(=O)c2c(O)c(=O)cnn21 [Example 17, (9aR,10S)-10-((R)-(2-fluoro-3-methylphenyl)(o-tolyl)methyl)-4-hydroxy-8,9,9a,10-tetrahydro-7H-pyrrolo[1′,2′:4,5]pyrazino[1,2-b]pyridazine-3,5-dione]	100 to 1000	< 100	100 to 1000
Cc1c(F)cccc1[C@@H](c1ccc(F)cc1)[C@H]1[C@H]2CCCN2C(=O)c2c(O)c(=O)cnn21 [Example 18, (9aR,10S)-10-((R)-(3-fluoro-2-methylphenyl)(4-fluorophenyl)methyl)-4-hydroxy-8,9,9a,10-tetrahydro-7H-pyrrolo[1′,2′:4,5]pyrazino[1,2-b]pyridazine-3,5-dione]	< 100	< 100	< 100
Cc1c(F)cccc1[C@@H](c1ccccc1)[C@H]1[C@H]2CCCN2C(=O)c2c(O)c(=O)cnn21 [Example 19, (9aR,10S)-10-((R)-(3-fluoro-2-methylphenyl)(phenyl)methyl)-4-(|1-oxidanyl)-8,9,9a,10-tetrahydro-7H-pyrrolo[1′,2′:4,5]pyrazino[1,2-b]pyridazine-3,5-dione]	< 100	< 100	< 100
O=C1c2c(O)c(=O)cnn2[C@@H]([C@H](c2ccc(F)cc2)c2cccc(C(F)(F)F)c2)[C@H]2CCCN12 [Example 20, (9aR,10S)-10-((R)-(4-fluorophenyl)(3-(trifluoromethyl)phenyl)methyl)-4-hydroxy-8,9,9a,10-tetrahydro-7H-pyrrolo[1′,2′:4,5]pyrazino[1,2-b]pyridazine-3,5-dione]	100 to 1000	100 to 1000	100 to 1000
O=C1c2c(O)c(=O)cnn2[C@@H]([C@H](c2ccc(F)cc2)c2ccc(C(F)(F)F)cc2)[C@H]2CCCN12 [Example 21, (9aR,10S)-10-((S)-(4-fluorophenyl)(4-(trifluoromethyl)phenyl)methyl)-4-hydroxy-8,9,9a,10-tetrahydro-7H-pyrrolo[1′,2′:4,5]pyrazino[1,2-b]pyridazine-3,5-dione]	100 to 1000	100 to 1000	100 to 1000
O=C1c2c(O)c(=O)cnn2[C@@H]([C@H](c2ccc(F)cc2)c2cccc(OC(F)(F)F)c2)[C@H]2CCCN12 [Example 22, (9aR,10S)-10-((R)-(4-fluorophenyl)(3-(trifluoromethoxy)phenyl)methyl)-4-hydroxy-8,9,9a,10-tetrahydro-7H-pyrrolo[1′,2′:4,5]pyrazino[1,2-b]pyridazine-3,5-dione]	100 to 1000	100 to 1000	100 to 1000
O=C1c2c(O)c(=O)cnn2[C@@H]([C@H](c2ccc(F)cc2)c2ccc(OC(F)(F)F)cc2)[C@H]2CCCN12 [Example 23, (9aR,10S)-10-((S)-(4-fluorophenyl)(4-(trifluoromethoxy)phenyl)methyl)-4-hydroxy-8,9,9a,10-tetrahydro-7H-pyrrolo[1′,2′:4,5]pyrazino[1,2-b]pyridazine-3,5-dione]	100 to 1000	100 to 1000	≥ 1000
COc1cccc([C@@H](c2ccc(F)cc2)[C@H]2[C@H]3CCCN3C(=O)c3c(O)c(=O)cnn32)c1 [Example 24, (9aR,10S)-10-((R)-(4-fluorophenyl)(3-methoxyphenyl)methyl)-4-hydroxy-8,9,9a,10-tetrahydro-7H-pyrrolo[1′,2′:4,5]pyrazino[1,2-b]pyridazine-3,5-dione]	100 to 1000	100 to 1000	100 to 1000
COc1ccccc1[C@@H](c1ccc(F)cc1)[C@H]1[C@H]2CCCN2C(=O)c2c(O)c(=O)cnn21 [Example 25, (9aR,10S)-10-((R)-(4-fluorophenyl)(2-methoxyphenyl)methyl)-4-hydroxy-8,9,9a,10-tetrahydro-7H-pyrrolo[1′,2′:4,5]pyrazino[1,2-b]pyridazine-3,5-dione]	100 to 1000	100 to 1000	100 to 1000
COc1ccc([C@@H](c2ccc(F)cc2)[C@H]2[C@H]3CCCN3C(=O)c3c(O)c(=O)cnn32)cc1 [Example 26, (9aR,10S)-10-((S)-(4-fluorophenyl)(4-methoxyphenyl)methyl)-4-hydroxy-8,9,9a,10-tetrahydro-7H-pyrrolo[1′,2′:4,5]pyrazino[1,2-b]pyridazine-3,5-dione]	100 to 1000	100 to 1000	100 to 1000
O=C1c2c(O)c(=O)cnn2[C@@H]([C@@H](c2ccc(F)c(F)c2)c2cccc(F)c2F)[C@H]2CCCN12 [Example 27, (9aR,10S)-10-((S)-(2,3-difluorophenyl)(3,4-difluorophenyl)methyl)-4-hydroxy-8,9,9a,10-tetrahydro-7H-pyrrolo[1′,2′:4,5]pyrazino[1,2-b]pyridazine-3,5-dione]	< 100	< 100	100 to 1000
O=C1c2c(O)c(=O)cnn2[C@@H]([C@@H](c2ccccc2F)c2cccc(F)c2F)[C@H]2CCCN12 [Example 28, (9aR,10S)-10-((S)-(2,3-difluorophenyl)(2-fluorophenyl)methyl)-4-hydroxy-8,9,9a,10-tetrahydro-7H-pyrrolo[1′,2′:4,5]pyrazino[1,2-b]pyridazine-3,5-dione]	< 100	< 100	< 100
